Experimental data from paper PMC5118871 (Molecular microbiology, 2016).

Legend:
[1] = molecular target: T1, LmOpuCA tandem CBS domains (residues 247–371) (Listeria monocytogenes, UniProt Q9KHT9); test: X-ray crystal structure, […] Å, crystal soaked with c-di-AMP; format: binding; settings: one c-di-AMP per dimer, at the dimer interface; pH 9.0
T1 sequence (Q9KHT9 247-371): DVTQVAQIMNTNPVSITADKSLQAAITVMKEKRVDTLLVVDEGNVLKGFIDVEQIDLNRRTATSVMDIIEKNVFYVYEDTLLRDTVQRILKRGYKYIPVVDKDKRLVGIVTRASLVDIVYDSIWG

crystal structure = molecular target: the molecule itself; test: crystal structure

## Nc1ncnc2c1ncn2[C@@H]1O[C@@H]2COP(=O)(O)O[C@H]3[C@@H](O)[C@H](n4cnc5c(N)ncnc54)O[C@@H]3COP(=O)(O)O[C@H]2[C@H]1O [c-di-AMP]
[1]
  X-ray crystal structure, 2.9 Å, crystal soaked with c-di-AMP: We observed clear electron density for one c-di-AMP molecule bound to the OpuCA dimer

B1: L. monocytogenes OpuCA (LmOpuCA) tandem CBS domains (residues 247–371) (domain or fragment, UniProt Q9KHT9 247-371, looked up)
chain: DVTQVAQIMNTNPVSITADKSLQAAITVMKEKRVDTLLVVDEGNVLKGFIDVEQIDLNRRTATSVMDIIEKNVFYVYEDTLLRDTVQRILKRGYKYIPVVDKDKRLVGIVTRASLVDIVYDSIWG
Crystal structure
  stoichiometry N: 2
